Source: patent US20220289685A1, “ANTIMALARIAL HEXAHYDROPYRIMIDINE ANALOGUES” (UCB BIOPHARMA SRL, priority 2019, published 2022)
pIC50: −log10 of the molar value. Structures can show the parent of a compound that is named as a salt.

What follows are compounds tested on Plasmodium falciparum 3D7 strain (assay: P. falciparum 3D7 asexual blood stage assay (SYBR green readout)). Settings: P. falciparum 3D7 in human erythrocytes, 72 h incubation, SYBR green fluorescence; read-out: IC50.
Format: cell-based
How it was run: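 P. falciparum 3D7 in A+ erythrocytes (5% haematocrit, 0.5% parasitaemia) exposed 72 h at 37 °C under 1% O2/3% CO2 to 20-point 1.5-fold titrations, 50,000–15 nM in 0.5% DMSO. SYBR green lysis overnight, fluorescence 485/528 nm; normalized to mefloquine and DMSO, EC50 from biphasic two-site fit.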
In the case of `COc1ncccc1C(=O)Nc1cccc([C@]2(C)CC(=O)N([C@@H]3CCO[C@H](C)C3)C(=N)N2)c1Cl` (relative stereo) [Example 30, N-(2-Chloro-3-{(4S)-2-imino-4-methyl-1-[(2R*,4R*)-2-methyl-etrahydropyran-4-yl]-6-oxo-hexahydropyrimidin-4-yl]phenyl)-2-methoxypyridine-3-carboxamide trifluoroacetic acid salt], the pIC50 was 7.82.

Same assay, conditions: Plasmodium falciparum, 3D7, Erythrocyte, 72 h
With `C[C@@H]1C[C@H](N2C(=N)N[C@](C)(c3cccc(NC(=O)c4cc5ccccc5nn4)c3Cl)CC2=O)CCO1` (relative stereo) [Example 46, N-(2-Chloro-3-{(4S)-2-imino-4-methyl-1-[(2R*,4R*)-2-methyl-tetrahydropyran-4-yl]-6-oxo-hexahydropyrimidin-4-yl]phenyl)-cinnoline-3-carboxamide trifluoroacetic acid salt] the pIC50 was 7.39. For `C[C@@H]1C[C@H](N2C(=N)N[C@](C)(c3cccc(NC(=O)c4ccc(OC(F)(F)F)cn4)c3Cl)CC2=O)CCO1` (relative stereo) [Example 47, N-(2-Chloro-3-{(4S)-2-imino-4-methyl-1-[(2R*,4R*)-2-methyl-tetrahydropyran-4-yl]-6-oxo-hexahydropyrimidin-4-yl]phenyl)-5-(trifluoromethoxy)pyridine-2-carboxamide trifluoroacetic acid salt], the pIC50 was 6.62. With `COc1c(C#N)cccc1C(=O)Nc1cccc([C@]2(C)CC(=O)N([C@@H]3CCO[C@H](C)C3)C(=N)N2)c1Cl` (relative stereo) [Example 107, N-(2-Chloro-3-{(4S)-2-imino-4-methyl-1-[(2R*,4R*)-2-methyl-tetrahydropyran-4-yl]-6-oxo-hexahydropyrimidin-4-yl}phenyl)-3-cyano-2-methoxybenzamide hydrochloride] the pIC50 was 7.57. With `C[C@@H]1C[C@H](N2C(=N)N[C@](C)(c3cccc(NC(=O)c4ncc(F)cc4F)c3Cl)CC2=O)CCO1` (relative stereo) [Example 100, N-(2-Chloro-3-{(4S)-2-imino-4-methyl-1-[(2R*,4R*)-2-methyl-tetrahydropyran-4-yl]-6-oxo-hexahydropyrimidin-4-yl}phenyl)-3,5-difluoropyridine-2-carboxamide hydrochloride] the pIC50 was 7.48. `C[C@@H]1C[C@H](N2C(=N)N[C@](C)(c3cccc(NC(=O)c4ccc(F)cc4OC(F)(F)F)c3Cl)CC2=O)CCO1` (relative stereo) [Example 102, N-(2-Chloro-3-{(4S)-2-imino-4-methyl-1-[(2R*,4R*)-2-methyl-tetrahydropyran-4-yl]-6-oxo-hexahydropyrimidin-4-yl}phenyl)-4-fluoro-2-(trifluoromethoxy)-benzamide hydrochloride] was tested, and the pIC50 was 7.46. `C[C@@H]1C[C@H](N2C(=N)N[C@](C)(c3cccc(NC(=O)c4cncc(C#N)c4)c3Cl)CC2=O)CCO1` (relative stereo) [Example 74, N-(2-Chloro-3-{(4S)-2-imino-4-methyl-1-[(2R*,4R*)-2-methyl-tetrahydropyran-4-yl]-6-oxo-hexahydropyrimidin-4-yl}phenyl)-5-cyanopyridine-3-carboxamide hydrochloride] gave a pIC50 of 6.96. `C[C@@H]1C[C@H](N2C(=N)N[C@](C)(c3cccc(NC(=O)c4cncc(N(C)C)n4)c3Cl)CC2=O)CCO1` (relative stereo) [Example 91, N-(2-Chloro-3-{(4S)-2-imino-4-methyl-1-[(2R*,4R*)-2-methyl-tetrahydropyran-4-yl]-6-oxo-hexahydropyrimidin-4-yl]phenyl)-6-(dimethylamino)pyrazine-2-carboxamide hydrochloride] gave a pIC50 of 6.94. `C[C@@H]1C[C@H](N2C(=N)N[C@](C)(c3cccc(NC(=O)c4ccnn4C)c3Cl)CC2=O)CCO1` (relative stereo) [Example 51, N-(2-Chloro-3-{(4S)-2-imino-4-methyl-1-[(2R*,4R*)-2-methyl-tetrahydropyran-4-yl]-6-oxo-hexahydropyrimidin-4-yl}phenyl)-2-methylpyrazole-3-carboxamide trifluoroacetic acid salt] was tested, and the pIC50 was 7.23. Compound `C[C@@H]1C[C@H](N2C(=N)N[C@](C)(c3cccc(NC(=O)c4cnccn4)c3Cl)CC2=O)CCO1` (relative stereo) [Example 14, N-(2-Chloro-3-{(4S)-2-imino-4-methyl-1-[(2R*,4R*)-2-methyl-tetrahydropyran-4-yl]-6-oxo-hexahydropyrimidin-4-yl}phenyl)-pyrazine-2-carboxamide hydrochloride] has a pIC50 of 7.85. `C[C@@H]1C[C@H](N2C(=N)N[C@](C)(c3cccc(NC(=O)c4cnccc4C(F)(F)F)c3Cl)CC2=O)CCO1` (relative stereo) [Example 56, N-(2-Chloro-3-{(4S)-2-imino-4-methyl-1-[(2R*,4R*)-2-methyl-tetrahydropyran-4-yl]-6-oxo-hexahydropyrimidin-4-yl}phenyl)-4-(trifluoromethyl)pyridine-3-carboxamide hydrochloride] gave a pIC50 of 7.68. Work on `C[C@@H]1C[C@H](N2C(=N)N[C@](C)(c3cccc(NC(=O)c4cccc(C#N)c4)c3Cl)CC2=O)C[C@H](C)O1` (relative stereo) [Example 24, N-(2-Chloro-3-{(4S)-1-[(2S*,6R*)-2,6-dimethyltetrahydropyran-4-yl]-2-imino-4-methyl-6-oxohexahydro-pyrimidin-4-yl]phenyl)-3-cyano-benzamide hydrochloride] yielded a pIC50 of 7.55. `C[C@@H]1C[C@H](N2C(=N)N[C@](C)(c3cccc(NC(=O)c4cn(C)c5ccccc45)c3Cl)CC2=O)CCO1` (relative stereo) [Example 27, N-(2-Chloro-3-{(4S)-2-imino-4-methyl-1-[(2R*,4R*)-2-methyl-tetrahydropyran-4-yl]-6-oxo-hexahydropyrimidin-4-yl}phenyl)-1-methylindole-3-carboxamide trifluoroacetic acid salt] showed a pIC50 of 7.54. With `C[C@@H]1C[C@H](N2C(=N)N[C@](C)(c3cccc(NC(=O)c4cc(C#N)ccn4)c3Cl)CC2=O)CCO1` (relative stereo) [Example 75, N-(2-Chloro-3-{(4S)-2-imino-4-methyl-1-[(2R*,4R*)-2-methyl-tetrahydropyran-4-yl]-6-oxo-hexahydropyrimidin-4-yl}phenyl)-4-cyanopyridine-2-carboxamide hydrochloride] the pIC50 was 7.70. `Cc1cnc(C(=O)Nc2cccc([C@]3(C)CC(=O)N([C@@H]4CCO[C@H](C)C4)C(=N)N3)c2Cl)cn1` (relative stereo) [Example 34, N-(2-Chloro-3-{(4S)-2-imino-4-methyl-1-[(2R*,4R*)-2-methyl-tetrahydropyran-4-yl]-6-oxo-hexahydropyrimidin-4-yl]phenyl)-5-methylpyrazine-2-carboxamide trifluoroacetic acid salt] gave a pIC50 of 7.22.

Same assay, conditions: Plasmodium falciparum, Erythrocyte; P. falciparum 3D7 in human erythrocytes, 72 h incubation, SYBR green fluorescence; read-out: IC50
With `C[C@@H]1C[C@H](N2C(=N)N[C@](C)(c3cccc(NC(=O)c4nccn5ccnc45)c3Cl)CC2=O)CCO1` (relative stereo) [Example 48, N-(2-Chloro-3-{(4S)-2-imino-4-methyl-1-[(2R*,4R*)-2-methyl-tetrahydropyran-4-yl]-6-oxo-hexahydropyrimidin-4-yl}phenyl)-imidazo[1,2-alpyrazine-8-carboxamidetrifluoroacetic acid salt] the pIC50 was 7.26.
